# Test results as given in patent US20250034159A1, “INHIBITORS OF EPIDERMAL GROWTH FACTOR RECEPTOR” (ORIC Pharmaceuticals, Inc., priority 2021, published 2025).
# Like-named read-outs stand apart in the source and are kept apart here.
# Assays:
# [1] = target: recombinant human EGFR exon 19 deletion/C797S double mutant protein (Homo sapiens (Human), UniProt P00533, C797S/DEL746-750); assay: Biological Activity Assay C: biochemical assay against EGFR exon 19 deletion/C797S protein (EGFR d19/CS)
# Method in brief: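 Compounds were tested as 16-point serial dilutions (final DMSO 2.5%) with a Phosphosens peptide sensor/ATP working solution (40 uM/4 mM). The signal was read kinetically over 90 cycles at 120 s intervals. IC50s came from 4-parameter fits of per-well slopes.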
# BaF3_EGFR d19/CS cells = assay: Biological Activity Assay D: BaF3 cell proliferation assay, EGFR exon 19 deletion/C797S (BaF3 d19/CS); assay type: cell-based; settings: Ba/F3 EGFR, read-out: BaF3 d19/CS IC50
# Ba/F3_EGFR WT cells = assay: Biological Activity Assay D: BaF3 cell proliferation assay, EGFR wild-type (BaF3 WT); assay type: cell-based; settings: Ba/F3 EGFR, read-out: BaF3 WT IC50
# BaF3_EGFR LR/CS cells = assay: Biological Activity Assay D: BaF3 cell proliferation assay, EGFR L858R/C797S mutant (BaF3 LR/CS); assay type: cell-based; settings: Ba/F3 EGFR, read-out: BaF3 LR/CS IC50
# [2] = BaF3_EGFR d19/CS cells, ~72 hours, CellTiter-Glo
# [3] = Ba/F3_EGFR WT cells, ~72 hours, CellTiter-Glo
# [4] = BaF3_EGFR LR/CS cells, ~72 hours, CellTiter-Glo
# recombinant human EGFR exon 19 deletion/C797S double mutant protein, sequence (P00533 other isoform, or with tags, fused parts or gaps C797S/del 1-668/del 746-750 limits assumed): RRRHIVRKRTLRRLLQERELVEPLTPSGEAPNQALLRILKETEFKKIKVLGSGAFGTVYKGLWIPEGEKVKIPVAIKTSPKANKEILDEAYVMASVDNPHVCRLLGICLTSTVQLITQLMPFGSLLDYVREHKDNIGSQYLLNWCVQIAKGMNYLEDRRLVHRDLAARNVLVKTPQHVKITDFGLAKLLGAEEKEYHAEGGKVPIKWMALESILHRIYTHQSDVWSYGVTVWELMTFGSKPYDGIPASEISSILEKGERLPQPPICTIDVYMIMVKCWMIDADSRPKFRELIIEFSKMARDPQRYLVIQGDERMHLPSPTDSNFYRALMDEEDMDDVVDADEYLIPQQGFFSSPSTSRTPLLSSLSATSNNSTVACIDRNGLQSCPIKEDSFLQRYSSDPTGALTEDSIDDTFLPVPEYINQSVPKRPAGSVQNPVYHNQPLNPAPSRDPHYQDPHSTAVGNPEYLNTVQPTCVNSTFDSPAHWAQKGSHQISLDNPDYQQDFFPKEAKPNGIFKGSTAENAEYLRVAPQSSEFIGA
smiles,measurement,setting,value
"NC(=O)c1cccc(-c2cc3c(-c4cn(C5CS(=O)(=O)C5)nc4-c4ccc(F)cc4)ncnc3o2)c1 [Example 176, 3-{4-[1-(1,1-dioxo-1λ6-thietan-3-yl)-3-(4-fluorophenyl)-1H-pyrazol-4-yl]furo[2,3-d]pyrimidin-6-yl}benzamide]",IC50,[1],0.00036 µM
same,IC50,BaF3_EGFR d19/CS cells; [2],0.14 µM
same,IC50,Ba/F3_EGFR WT cells; [3],2.54 µM
same,IC50,BaF3_EGFR LR/CS cells; [4],0.134 µM
"O=S1(=O)CC(n2cc(-c3ncnc4oc(-c5cccc(C6CC6)c5)cc34)c(-c3ccc(F)cc3)n2)C1 [Example 178, 3-{4-[6-(3-cyclopropylphenyl)furo[2,3-d]pyrimidin-4-yl]-3-(4-fluorophenyl)-1H-pyrazol-1-yl}-16-thietane-1,1-dione]",IC50,[1],0.00227 µM
same,IC50,BaF3_EGFR d19/CS cells; [2],0.187 µM
same,IC50,Ba/F3_EGFR WT cells; [3],5.2 µM
same,IC50,BaF3_EGFR LR/CS cells; [4],0.0897 µM
"CCn1cc(-c2ncnc3oc(-c4ccccc4)cc23)c(-c2ccc(F)cc2)n1 [Example 179, 4-[1-ethyl-3-(4-fluorophenyl)-1H-pyrazol-4-yl]-6-phenylfuro[2,3-d]pyrimidine]",IC50,[1],0.00039 µM
same,IC50,BaF3_EGFR d19/CS cells; 72 h,0.041 µM
same,IC50,Ba/F3_EGFR WT cells; 72 h,2.2 µM
same,IC50,BaF3_EGFR LR/CS cells; 72 h,0.0172 µM
"O=C(c1ccccc1)N1CC=C(c2cc3c(-c4cn(C5CS(=O)(=O)C5)nc4-c4ccc(F)cc4)ncnc3o2)CC1 [Example 180, 3-{4-[6-(1-benzoyl-1,2,3,6-tetrahydropyridin-4-yl)furo[2,3-d]pyrimidin-4-yl]-3-(4-fluorophenyl)-1H-pyrazol-1-yl}-1λ6-thietane-1,1-dione]",IC50,[1],0.00039 µM
same,IC50,BaF3_EGFR d19/CS cells; [2],0.161 µM
same,IC50,Ba/F3_EGFR WT cells; [3],2.92 µM
same,IC50,BaF3_EGFR LR/CS cells; [4],0.128 µM
"CS(=O)(=O)N1CC=C(c2cc3c(-c4cn(C5CS(=O)(=O)C5)nc4-c4ccc(F)cc4)ncnc3o2)CC1 [Example 181, 3-[3-(4-fluorophenyl)-4-{6-[1-(methanesulfonyl)-1,2,3,6-tetrahydropyridin-4-yl]furo[2,3-d]pyrimidin-4-yl}-1H-pyrazol-1-yl]-1λ6-thietane-1,1-dione]",IC50,[1],0.00027 µM
same,IC50,BaF3_EGFR d19/CS cells; [2],0.097 µM
same,IC50,Ba/F3_EGFR WT cells; [3],2.11 µM
same,IC50,BaF3_EGFR LR/CS cells; [4],0.0793 µM
"O=S1(=O)CC(n2cc(-c3ncnc4oc(-c5ccccc5C(F)(F)F)cc34)c(-c3ccc(F)cc3)n2)C1 [Example 182, 3-[3-(4-fluorophenyl)-4-{6-[2-(trifluoromethyl)phenyl]furo[2,3-d]pyrimidin-4-yl}-1H-pyrazol-1-yl]-1λ6-thietane-1,1-dione]",IC50,[1],0.00165 µM
same,IC50,BaF3_EGFR d19/CS cells; [2],0.392 µM
same,IC50,Ba/F3_EGFR WT cells; [3],> 20 µM
same,IC50,BaF3_EGFR LR/CS cells; [4],0.444 µM
"NC(=O)c1ccccc1-c1cc2c(-c3cn(C4CS(=O)(=O)C4)nc3-c3ccc(F)cc3)ncnc2o1 [Example 183, 2-{4-[1-(1,1-dioxo-1λ6-thietan-3-yl)-3-(4-fluorophenyl)-1H-pyrazol-4-yl]furo[2,3-d]pyrimidin-6-yl}benzamide]",IC50,[1],0.00014 µM
same,IC50,BaF3_EGFR d19/CS cells; [2],0.146 µM
same,IC50,Ba/F3_EGFR WT cells; [3],5.42 µM
same,IC50,BaF3_EGFR LR/CS cells; [4],0.145 µM
"Fc1ccc(-c2nn([C@@H]3C[C@H]4CC[C@@H](C3)O4)cc2-c2ncnc3oc(-c4ccccc4)cc23)cc1 [Example 186, 4-{3-(4-fluorophenyl)-1-[(1R,3s,5S)-8-oxabicyclo[3.2.1]octan-3-yl]-1H-pyrazol-4-yl}-6-phenylfuro[2,3-d]pyrimidine]",IC50,[1],0.00063 µM
same,IC50,BaF3_EGFR d19/CS cells; [2],0.348 µM
same,IC50,Ba/F3_EGFR WT cells; [3],4.45 µM
same,IC50,BaF3_EGFR LR/CS cells; [4],0.186 µM
"O=S1(=O)CC(n2cc(-c3ncnc4oc(-c5cccnn5)cc34)c(-c3ccc(F)cc3)n2)C1 [Example 187, 3-{3-(4-fluorophenyl)-4-[6-(pyridazin-3-yl)furo[2,3-d]pyrimidin-4-yl]-1H-pyrazol-1-yl}-1λ6-thietane-1,1-dione]",IC50,[1],0.00336 µM
same,IC50,BaF3_EGFR d19/CS cells; [2],0.589 µM
same,IC50,Ba/F3_EGFR WT cells; [3],9.03 µM
same,IC50,BaF3_EGFR LR/CS cells; [4],1.24 µM
"O=S1(=O)CC(n2cc(-c3ncnc4oc(-c5cnccn5)cc34)c(-c3ccc(F)cc3)n2)C1 [Example 188, 3-{3-(4-fluorophenyl)-4-[6-(pyrazin-2-yl)furo[2,3-d]pyrimidin-4-yl]-1H-pyrazol-1-yl}-1λ6-thietane-1,1-dione]",IC50,[1],0.00223 µM
same,IC50,BaF3_EGFR d19/CS cells; [2],0.246 µM
same,IC50,Ba/F3_EGFR WT cells; [3],11.7 µM
same,IC50,BaF3_EGFR LR/CS cells; [4],0.489 µM
"C[C@@H]1C[C@@H](n2cc(-c3ncnc4oc(-c5ccccc5)cc34)c(-c3ccc(F)cc3)n2)CN1S(C)(=O)=O [Example 189, 4-{3-(4-fluorophenyl)-1-[(3R,5R)-1-(methanesulfonyl)-5-methylpyrrolidin-3-yl]-1H-pyrazol-4-yl}-6-phenylfuro[2,3-d]pyrimidine]",IC50,[1],0.00026 µM
same,IC50,BaF3_EGFR d19/CS cells; [2],0.00586 µM
same,IC50,Ba/F3_EGFR WT cells; [3],0.132 µM
same,IC50,BaF3_EGFR LR/CS cells; [4],0.00551 µM
"O=S1(=O)CC(n2cc(-c3ncnc4oc(-c5cccc(CN6CCOCC6)c5)cc34)c(-c3ccc(F)cc3)n2)C1 [Example 190, 3-[3-(4-fluorophenyl)-4-(6-{3-[(morpholin-4-yl)methyl]phenyl}furo[2,3-d]pyrimidin-4-yl)-1H-pyrazol-1-yl]-16-thietane-1,1-dione]",IC50,[1],0.00018 µM
same,IC50,BaF3_EGFR d19/CS cells; [2],0.0591 µM
same,IC50,Ba/F3_EGFR WT cells; [3],2.16 µM
same,IC50,BaF3_EGFR LR/CS cells; [4],0.064 µM
"CC(=O)N1CC=C(c2nc3c(-c4cn(C5CS(=O)(=O)C5)nc4-c4ccc(F)cc4)ncnc3[nH]2)CC1 [Example 191, 3-{4-[8-(1-acetyl-1,2,3,6-tetrahydropyridin-4-yl)-9H-purin-6-yl]-3-(4-fluorophenyl)-1H-pyrazol-1-yl}-1λ6-thietane-1,1-dione]",IC50,[1],0.00065 µM
same,IC50,BaF3_EGFR d19/CS cells; [2],> 20 µM
same,IC50,Ba/F3_EGFR WT cells; [3],> 20 µM
same,IC50,BaF3_EGFR LR/CS cells; [4],> 20 µM
"CS(=O)(=O)[C@H]1C[C@H](n2cc(-c3ncnc4oc(-c5ccccc5)cc34)c(-c3ccc(F)cc3)n2)C1 [Example 194, 4-{3-(4-fluorophenyl)-1-[(1r,3r)-3-(methanesulfonyl)cyclobutyl]-1H-pyrazol-4-yl}-6-phenylfuro[2,3-d]pyrimidine]",IC50,[1],0.00083 µM
same,IC50,BaF3_EGFR d19/CS cells; [2],0.274 µM
same,IC50,Ba/F3_EGFR WT cells; [3],3.61 µM
same,IC50,BaF3_EGFR LR/CS cells; [4],0.175 µM
"O=S1(=O)CC(n2cc(-c3ncnc4oc(-c5ncccn5)cc34)c(-c3ccc(F)cc3)n2)C1 [Example 195, 3-{3-(4-fluorophenyl)-4-[6-(pyrimidin-2-yl)furo[2,3-d]pyrimidin-4-yl]-1H-pyrazol-1-yl}-1λ6-thietane-1,1-dione]",IC50,[1],0.00689 µM
same,IC50,BaF3_EGFR d19/CS cells; [2],0.365 µM
same,IC50,Ba/F3_EGFR WT cells; [3],6 µM
same,IC50,BaF3_EGFR LR/CS cells; [4],0.799 µM
"O=S1(=O)CC(n2cc(-c3ncnc4oc(-c5ccncn5)cc34)c(-c3ccc(F)cc3)n2)C1 [Example 196, 3-{3-(4-fluorophenyl)-4-[6-(pyrimidin-4-yl)furo[2,3-d]pyrimidin-4-yl]-1H-pyrazol-1-yl}-1λ6-thietane-1,1-dione]",IC50,[1],0.00089 µM
same,IC50,BaF3_EGFR d19/CS cells; [2],0.133 µM
same,IC50,Ba/F3_EGFR WT cells; [3],1.74 µM
same,IC50,BaF3_EGFR LR/CS cells; [4],0.212 µM
"C[C@H]1C[C@H](n2cc(-c3ncnc4oc(-c5ccccc5)cc34)c(-c3ccc(F)cc3)n2)CN1S(C)(=O)=O [Example 197, 4-{3-(4-fluorophenyl)-1-[(3S,5S)-1-(methanesulfonyl)-5-methylpyrrolidin-3-yl]-1H-pyrazol-4-yl}-6-phenylfuro[2,3-d]pyrimidine]",IC50,[1],0.00045 µM
same,IC50,BaF3_EGFR d19/CS cells; [2],0.0465 µM
same,IC50,Ba/F3_EGFR WT cells; [3],0.139 µM
same,IC50,BaF3_EGFR LR/CS cells; [4],0.0128 µM
"C[C@H]1C[C@@H](n2cc(-c3ncnc4oc(-c5ccccc5)cc34)c(-c3ccc(F)cc3)n2)CN1S(C)(=O)=O [Example 198, 4-{3-(4-fluorophenyl)-1-[(3R,5S)-1-(methanesulfonyl)-5-methylpyrrolidin-3-yl]-1H-pyrazol-4-yl}-6-phenylfuro[2,3-d]pyrimidine]",IC50,[1],0.00072 µM
same,IC50,BaF3_EGFR d19/CS cells; [2],0.0519 µM
same,IC50,Ba/F3_EGFR WT cells; [3],0.703 µM
same,IC50,BaF3_EGFR LR/CS cells; [4],0.0179 µM
"Cn1cnc(-c2cc3c(-c4cn(C5CS(=O)(=O)C5)nc4-c4ccc(F)cc4)ncnc3o2)c1 [Example 200, 3-{3-(4-fluorophenyl)-4-[6-(1-methyl-1H-imidazol-4-yl)furo[2,3-d]pyrimidin-4-yl]-1H-pyrazol-1-yl}-16-thietane-1,1-dione]",IC50,[1],0.00013 µM
same,IC50,BaF3_EGFR d19/CS cells; 72 h,0.00878 µM
same,IC50,Ba/F3_EGFR WT cells; 72 h,0.412 µM
same,IC50,BaF3_EGFR LR/CS cells; 72 h,0.00504 µM
"Cn1ccnc1-c1cc2c(-c3cn(C4CS(=O)(=O)C4)nc3-c3ccc(F)cc3)ncnc2o1 [Example 201, 3-{3-(4-fluorophenyl)-4-[6-(1-methyl-1H-imidazol-2-yl)furo[2,3-d]pyrimidin-4-yl]-1H-pyrazol-1-yl}-1λ6-thietane-1,1-dione]",IC50,[1],0.00052 µM
same,IC50,BaF3_EGFR d19/CS cells; [2],0.142 µM
same,IC50,Ba/F3_EGFR WT cells; [3],1.58 µM
same,IC50,BaF3_EGFR LR/CS cells; [4],0.2 µM
"CC1(C)CC(n2cc(-c3ncnc4oc(-c5ccccc5)cc34)c(-c3ccc(F)cc3)n2)CCO1 (centres unmarked) [Example 202, 4-[1-(2,2-dimethyloxan-4-yl)-3-(4-fluorophenyl)-1H-pyrazol-4-yl]-6-phenylfuro[2,3-d]pyrimidine]",IC50,[1],0.00148 µM
same,IC50,BaF3_EGFR d19/CS cells; [2],0.512 µM
same,IC50,Ba/F3_EGFR WT cells; [3],2.35 µM
same,IC50,BaF3_EGFR LR/CS cells; [4],0.219 µM
"CN(c1cccc(-c2cc3c(-c4cn(C5CS(=O)(=O)C5)nc4-c4ccc(F)cc4)ncnc3o2)c1)S(C)(=O)=O [Example 203, N-(3-{4-[1-(1,1-dioxo-1λ6-thietan-3-yl)-3-(4-fluorophenyl)-1H-pyrazol-4-yl]furo[2,3-d]pyrimidin-6-yl}phenyl)-N-methylmethanesulfonamide]",IC50,[1],0.00014 µM
same,IC50,BaF3_EGFR d19/CS cells; [2],0.0171 µM
same,IC50,Ba/F3_EGFR WT cells; [3],0.289 µM
same,IC50,BaF3_EGFR LR/CS cells; [4],0.0106 µM
"Fc1ccc(-c2nn(CC3CCC(F)(F)CC3)cc2-c2ncnc3oc(-c4ccccc4)cc23)cc1 [Example 204, 4-{1-[(4,4-difluorocyclohexyl)methyl]-3-(4-fluorophenyl)-1H-pyrazol-4-yl}-6-phenylfuro[2,3-d]pyrimidine]",IC50,[1],0.0102 µM
same,IC50,BaF3_EGFR d19/CS cells; [2],1.22 µM
same,IC50,Ba/F3_EGFR WT cells; [3],8.13 µM
same,IC50,BaF3_EGFR LR/CS cells; [4],0.288 µM
